The structures appear in SMILES notation. Bounds are passed on as bounds.

Common to all, as to assay type: cell-based
Test [1] relates to HeLa cells. Description: Cell proliferation assay with and without verapamil (MDR transporter check). Conditions: for potency increase with addition of verapamil: with verapamil versus without.
In test [2] the test system is HeLa cells. Description: Cell proliferation assay (XTT), cytostatic activity. Conditions: Homo sapiens, 72-h treatment, XTT cell proliferation kit. On the procedure:
[…] cells were seeded in 96-well plates and incubated in the presence or the absence of the indicated compounds at concentrations ranging from 10^-5 to 10^-12 M. The cytostatic activity was measured after 72-h treatments using the XTT (sodium 3'-[1-(phenylaminocarbonyl)-3,4-tetrazolium]-bis(4- methoxy-6-nitro)-benzenesulfonic acid hydrate) cell proliferation kit (Roche Molecular Biochemicals; Mannheim, Germany) following the manufacturer's specifications. Each condition was seeded in triplicate, and experiments were repeated three times to calculate IC values by non-linear regression fitting the data.
(In general: Formazan colour is commonly taken as a measure of viable cells.)

A further test concerns CAL33 RPTX. Description: MTT cell viability assay in paclitaxel-resistant cell line. Conditions: for sensitivity of paclitaxel-resistant cells (cell viability): CAL33 RPTX compared with parental CAL33, 24, 48 and 72 hours of exposure, six doses (Figures 1 and 2). The procedure: • Figure 1. Comparison of the effect on cell viability in the parental and paclitaxel-resistant CAL33 cell lines after 24, 48 and 72 hours of exposure to six different doses of paclitaxel. X axis, time (hours). Y axis, cell viability (%). • Figure 2. Comparison of the effect on cell viability in the parental and paclitaxel-resistant CAL33 cell lines after 24, 48 and 72 hours of exposure to six different doses of Compound 39. X axis, Compund 39 (nM). Y axis, cell viability (%). *p-value < 0.05. **p-value < 0.01. ***p-value < 0.001.
In order to characterise resistance to taxanes in HNSCC, a paclitaxel-resistant cell line was generated from the CAL33 cell line, derived from tongue carcinoma, following the method of progressively increasing the dose of cytotoxic agent on the cells in culture. The generation of a stable paclitaxel-resistant cell line was confirmed by an MTT cell viability assay, named CAL33 RPTX (Figure 1).
In order to search for an alternative treatment with a similar but effective cellular effect on paclitaxel-resistant HNSCC cells, a cell viability assay was performed to test the response to Compound 39 of the CAL33 and CAL33 RPTX cell lines.

Where [3] appears, read: Homo sapiens, without verapamil (control), compounds for 72 h, read-out: potency in the absence of verapamil.
[4] abbreviates: read-out: potency in the presence of 10 µM verapamil, incubated with 10 µM verapamil for 2 h, then compounds for 72 h.

As for `COc1cc(OC)cc(N(C)S(=O)(=O)c2ccc3c(ccn3C)c2)c1` [Compound 47, N-(3,5-dimethoxyphenyl)-N,1-dimethyl-1H-indole-5-sulfonamide], the results for the IC50 with HeLa cells [1] (setting [3]), with HeLa cells [1] (setting [4]) and in the test on HeLa cells [2] were 551 nM, 642 nM and 20.1 nM, respectively.

With `COc1cc(N(C)S(=O)(=O)c2ccc3c(ccn3C)c2)cc(OC)c1OC` [Compound 46, N,1-dimethyl-N-(3,4,5-trimethoxyphenyl)-1H-indole-5-sulfonamide], the values for the IC50 in the test on HeLa cells [1] (setting [3]), with HeLa cells [1] (setting [4]) and with HeLa cells [2] were 2.4 nM, 1.9 nM and 2.4 nM, respectively.

With `COc1cc(NS(=O)(=O)c2ccc3c(ccn3C)c2)cc(OC)c1OC` [Compound 44, 1-Methyl-N-(3,4,5-trimethoxyphenyl)-1H-indole-5-sulfonamide], the IC50 with HeLa cells [1] (setting [3]) turned out to be 10.8 nM; in the test with HeLa cells [1] (setting [4]) it was 8.4 nM; with HeLa cells [2], 10.8 nM.

Consider `CC(=O)O[C@H]1C(=O)[C@@]2(C)[C@H]([C@H](OC(=O)c3ccccc3)[C@]3(O)C[C@H](OC(=O)[C@H](O)[C@@H](NC(=O)c4ccccc4)c4ccccc4)C(C)=C1C3(C)C)[C@]1(OC(C)=O)CO[C@@H]1C[C@@H]2O` [paclitaxel], for which the “sensitivity of paclitaxel-resistant cells (cell viability)” value in the test on CAL33 RPTX was “resistant”.

`COc1cc(NS(=O)(=O)c2ccc3c(c2)c(C#N)cn3C)cc(OC)c1OC` [Compound 50, 3-Cyano-1-methyl-N-(3,4,5-trimethoxyphenyl)-1H-indole-5-sulfonamide]: the IC50 in the test with HeLa cells [1] (setting [3]) was determined as 21.4 nM; in the test with HeLa cells [1] (setting [4]), 25.5 nM; with HeLa cells [2] it was 21 nM.

`COc1cc(NS(=O)(=O)c2ccc3c(c2)c(C=O)cn3C)cc(OC)c1OC` [Compound 48, 3-Formyl-1-methyl-N-(3,4,5-trimethoxyphenyl)-1H-indole-5-sulfonamide]: the IC50 was found to be 206 nM with HeLa cells [1] (setting [3]), 287 nM in the test with HeLa cells [1] (setting [4]) and 206 nM with HeLa cells [2].

Regarding `COc1cc(OC)cc(N(C)S(=O)(=O)c2ccc3c(c2)c(C=O)cn3C)c1` [Compound 52, N-(3,5-dimethoxyphenyl)-3-formyl-N,1-dimethyl-1H-indole-5-sulfonamide], the IC50 in the test with HeLa cells [1] (setting [3]), with HeLa cells [1] (setting [4]) and in the test with HeLa cells [2] was above 1000 nM in each case.

Consider `COc1cc(/C=C\c2ccc3c(c2)c(C=O)cn3C)cc(OC)c1OC` [Compound 29, (Z)-1-Methyl-5-(3,4,5-trimethoxystyryl)-1H-indole-3-carbaldehyde], for which the “potency increase with addition of verapamil” value (“potency increase with addition” for short) in the test with HeLa cells [1] is listed as “more than 10 fold”.

On to `COc1cc(N(C)S(=O)(=O)c2ccc3c(c2)c(C#N)cn3C)cc(OC)c1OC` [Compound 51, 3-Cyano-N,1-dimethyl-N-(3,4,5-trimethoxyphenyl)-1H-indole-5-sulfonamide], for which the values for the IC50 in the test on HeLa cells [1] (setting [3]), in the test with HeLa cells [1] (setting [4]) and in the test on HeLa cells [2] were 12.3 nM, 10.6 nM and 12.3 nM, respectively.

With `COc1cc(/C=C\c2ccc3c(c2)c(/C=N/O)cn3C)cc(OC)c1OC` [Compound 31, (Z + E)-1-methyl-5-(3,4,5-trimethoxystyryl)-1H-indole-3-carbaldehyde oxime], in the test on HeLa cells [1], the “potency increase with addition” value is “more than 10 fold”.

Take `COc1ccc(CCN(C)CCCC(C#N)(c2ccc(OC)c(OC)c2)C(C)C)cc1OC` (stereo not drawn) [Verapamil, verapamil, reference compound]: in the test on HeLa cells [1] (verapamil alone at the working concentrations (1 and 10 µM)), the “effect on cell proliferation” value is listed as “no effect”.

Turning to `COc1cc(/C=C\c2ccc3c(c2)c(C(N)=O)cn3C)cc(OC)c1OC` [Compound 39, (Z)-1-Methyl-5-(3,4,5-trimethoxystyryl)-1H-indole-3-carboxamide], the “sensitivity of paclitaxel-resistant cells (cell viability)” value with CAL33 RPTX is reported as “maintain sensitivity”. For the same molecule, the “effect on tumour cell viability” value with CAL33 RPTX (at very low doses, CAL33 and CAL33 RPTX cell lines (Figure 2)) was “pronounced effect”. The same molecule displayed an IC50 in the test on HeLa cells [2] of 1200 nM.

As to `COc1cc(N(C)S(=O)(=O)c2ccc3c(c2)c(C=O)cn3C)cc(OC)c1OC` [Compound 49, 3-Formyl-N,1-dimethyl-N-(3,4,5-trimethoxyphenyl)-1H-indole-5-sulfonamide], the IC50 was 41.2 nM in the test on HeLa cells [1] (setting [3]), 44.7 nM in the test with HeLa cells [1] (setting [4]) and 41 nM with HeLa cells [2].

On to `COc1cc(OC)cc(N(C)S(=O)(=O)c2ccc3c(c2)c(C#N)cn3C)c1` [Compound 53, 3-cyano-N-(3,5-dimethoxyphenyl)-N,1-dimethyl-1H-indole-5-sulfonamide], for which the IC50 is 551 nM in the test on HeLa cells [1] (setting [3]), 642 nM with HeLa cells [1] (setting [4]) and above 1000 nM in the test with HeLa cells [2].

For the molecule `COc1cc(/C=C\c2ccc3c(c2)c(C#N)cn3C)cc(OC)c1OC` [Compound 33, (Z)-1-Methyl-5-(3,4,5-trimethoxystyryl)-1H-indole-3-carbonitrile], the “potency increase with addition” value with HeLa cells [1] is on record as “more than 10 fold”.

For the molecule `COc1cc(NS(=O)(=O)c2ccc3c(ccn3C)c2)cc(OC)c1` [Compound 45, N-(3,5-dimethoxyphenyl)-1-methyl-1H-indole-5-sulfonamide], the IC50 with HeLa cells [1] (setting [3]) is above 1000 nM; in the test on HeLa cells [1] (setting [4]) it was above 1000 nM; with HeLa cells [2] it was 1400 nM.

As to `CN(C)c1cc(C(=O)c2ccc3c(ccn3C)c2)cc(Cl)n1` [Compound 98, (2-chloro-6-(dimethylamino)pyridin-4-yl)(1-methyl-1H-indol-5-yl)methanone], the IC50 in the test with HeLa cells [2] is above 1000 nM.

These data come from patent publication EP4620466A1, “TRIMETHOXYSTYRYL DERIVATIVES FOR USE IN THE TREATMENT OF PACLITAXEL-RESISTANT CANCER” (Instituto de Investigación Biomédica de Salamanca De la …, priority 2024, dated 2025).
